The results in this text go back to patent publication US11021445B2, “Carboxylic acid derivative as AT2R receptor antagonist” (SHANDONG DANHONG PHARMACEUTICAL CO., LTD., priority 2017, dated 2021).

What is called pIC50 is the IC50 on a negative log10 scale, so that one unit is a factor of ten.

pIC50: −log10 of the molar value. A value given as a limit tells only on which side of the number the result lay.

Assay [1] concerns the target T1, CYP2C19 (Homo sapiens, UniProt P33261).
T1 construct: Mixed human liver microsomes (pooled HLM, n≥50) were purchased from Corning Inc; tissue Corning Inc. or other qualified suppliers; host or cells: pooled human liver microsomes (n≥50)
Kind of assay: Human liver microsome CYP inhibition experiment. Type of assay: in vitro ADME. Conditions: pooled human liver microsomes; read-out: Cytochrome P450 isoenzyme IC50 2C19. Here is the method: (§1) The research project used a specific probe substrate for each isoenzyme to evaluate the inhibitory effect of the test compound on human liver microsomal cytochrome P450 isoenzymes (CYPIA2. CYP2C9, CYP2C19, CYP2D6, and CYP3A4). Mixed human liver microsomes (pooled HLM, n≥50) were purchased from Corning Inc. (Steuben, N.Y., USA) or other qualified suppliers, and were stored in a refrigerator below −60° C. before use. The diluted series of to-be-tested compound working solutions were added to an incubation system containing cofactors of human liver microsomes, a probe substrate and a circulation system, and the methanol content was about 1% (v/v) of the final incubation system. A control containing no the to-be-tested compound and containing a solvent was used as a control for enzyme activity (100%). The concentration of the analyte in the sample was determined by liquid chromatography-tandem mass spectrometry (LC/MS/MS). The calculation was performed by using the average of the concentrations of the samples (a blank solvent, a positive control inhibitor, or the to-be-tested compound). Non-linear regression analysis was performed by using SigmaPlot (V.11) on the average percent activity of the compound to be tested to the concentration. The IC50 value was calculated by a three-parameter or four-parameter inflection logarithmic equation.
A general note: Liver microsomes are a subcellular fraction often used to study metabolism.

Assay [2] addresses T2, CYP2C9 (Homo sapiens, UniProt P11712).
T2 construct: Mixed human liver microsomes (pooled HLM, n≥50) were purchased from Corning Inc; tissue Corning Inc. or other qualified suppliers; host or cells: pooled human liver microsomes (n≥50)
As to the kind of experiment: Human liver microsome CYP inhibition experiment. Type of assay: in vitro ADME. Conditions: pooled human liver microsomes; read-out: Cytochrome P450 isoenzyme IC50 2C9. Here is the method:
as §1

Assay [3] addresses T3, CYP3A4 (Homo sapiens, UniProt P08684).
T3 construct: Mixed human liver microsomes (pooled HLM, n≥50) were purchased from Corning Inc; tissue Corning Inc. or other qualified suppliers; host or cells: pooled human liver microsomes (n≥50)
Kind of assay: Human liver microsome CYP inhibition experiment. Conditions: pooled human liver microsomes; read-out: Cytochrome P450 isoenzyme IC50 3A4. Type of assay: in vitro ADME. Here is the method:
as §1

Assay [4] has as its target T4, CYP1A2 (Homo sapiens, UniProt P05177).
T4 construct: Mixed human liver microsomes (pooled HLM, n≥50) were purchased from Corning Inc; tissue Corning Inc. or other qualified suppliers; host or cells: pooled human liver microsomes (n≥50)
T4 sequence (P05177 1-516): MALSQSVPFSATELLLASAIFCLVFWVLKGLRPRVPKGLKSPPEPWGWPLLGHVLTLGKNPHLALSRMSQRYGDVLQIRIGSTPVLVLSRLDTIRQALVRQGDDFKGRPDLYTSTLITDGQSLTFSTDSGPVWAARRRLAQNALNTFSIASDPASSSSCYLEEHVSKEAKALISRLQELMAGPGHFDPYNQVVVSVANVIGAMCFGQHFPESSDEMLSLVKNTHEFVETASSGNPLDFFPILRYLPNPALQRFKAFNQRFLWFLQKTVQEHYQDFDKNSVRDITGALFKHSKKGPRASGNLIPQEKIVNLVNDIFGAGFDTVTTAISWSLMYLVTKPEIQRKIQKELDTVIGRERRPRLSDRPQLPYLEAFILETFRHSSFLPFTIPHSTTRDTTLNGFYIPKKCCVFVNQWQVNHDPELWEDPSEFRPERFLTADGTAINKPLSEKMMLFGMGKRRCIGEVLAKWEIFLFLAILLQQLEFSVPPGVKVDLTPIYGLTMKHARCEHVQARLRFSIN
As to the kind of experiment: Human liver microsome CYP inhibition experiment. Format: in vitro ADME. Conditions: pooled human liver microsomes; read-out: Cytochrome P450 isoenzyme IC50 CYP1A2. The protocol:
as §1

The target of assay [5] is T5, CYP2D6 (Homo sapiens, UniProt P10635).
T5 construct: Mixed human liver microsomes (pooled HLM, n≥50) were purchased from Corning Inc; tissue Corning Inc. or other qualified suppliers; host or cells: pooled human liver microsomes (n≥50)
T5 sequence (P10635 whole entry): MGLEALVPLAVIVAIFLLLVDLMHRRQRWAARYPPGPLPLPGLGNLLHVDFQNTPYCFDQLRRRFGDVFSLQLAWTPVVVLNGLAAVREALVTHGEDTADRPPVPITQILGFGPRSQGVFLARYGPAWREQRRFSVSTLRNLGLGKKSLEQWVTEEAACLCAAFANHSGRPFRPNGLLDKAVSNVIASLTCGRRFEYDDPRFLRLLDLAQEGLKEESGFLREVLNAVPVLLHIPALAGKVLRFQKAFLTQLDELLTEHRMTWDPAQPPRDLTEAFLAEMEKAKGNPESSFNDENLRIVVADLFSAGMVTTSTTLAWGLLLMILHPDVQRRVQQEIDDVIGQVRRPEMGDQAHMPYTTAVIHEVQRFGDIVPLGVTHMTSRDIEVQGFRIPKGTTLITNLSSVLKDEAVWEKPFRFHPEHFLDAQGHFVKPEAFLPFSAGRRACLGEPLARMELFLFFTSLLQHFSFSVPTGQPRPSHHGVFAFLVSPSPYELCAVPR
As to the kind of experiment: Human liver microsome CYP inhibition experiment. Type of assay: in vitro ADME. Conditions: pooled human liver microsomes; read-out: Cytochrome P450 isoenzyme IC50 2D6. The protocol: as §1

Assay [6] deals with T6, hAT2 (Homo sapiens, UniProt P50052).
T6 construct: expressed in transfected cells; host or cells: HEK-293
T6 sequence (P50052 1-363): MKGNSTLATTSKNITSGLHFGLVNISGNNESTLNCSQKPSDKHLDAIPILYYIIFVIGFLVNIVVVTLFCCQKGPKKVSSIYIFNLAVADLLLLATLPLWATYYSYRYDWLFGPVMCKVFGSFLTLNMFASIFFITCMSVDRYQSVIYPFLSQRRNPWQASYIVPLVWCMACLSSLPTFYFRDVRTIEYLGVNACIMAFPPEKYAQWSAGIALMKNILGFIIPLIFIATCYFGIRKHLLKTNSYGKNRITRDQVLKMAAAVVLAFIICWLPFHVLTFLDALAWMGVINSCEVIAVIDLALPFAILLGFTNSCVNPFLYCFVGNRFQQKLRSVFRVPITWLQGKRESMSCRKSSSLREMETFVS
Kind of assay: hAT2 receptor binding assay (SPA, [125I]-Sar1-Ile8-Angiotensin II). As to conditions: membrane of HEK-293 cells overexpressing hAT2; 0.1 nM 125I ligand. In outline: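 Membranes from HEK-293 cells overexpressing hAT2 were used at 1.25 μg/well with 250 μg/well SPA beads. Compounds were tested as 8-point 3-fold dilutions, with stocks diluted 250-fold into the reaction. [125I]-Sar1-Ile8-Angiotensin II was present at 0.1 nM final, incubated overnight at room temperature with shaking, then read by scintillation proximity.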

T2 sequence (P11712 whole entry): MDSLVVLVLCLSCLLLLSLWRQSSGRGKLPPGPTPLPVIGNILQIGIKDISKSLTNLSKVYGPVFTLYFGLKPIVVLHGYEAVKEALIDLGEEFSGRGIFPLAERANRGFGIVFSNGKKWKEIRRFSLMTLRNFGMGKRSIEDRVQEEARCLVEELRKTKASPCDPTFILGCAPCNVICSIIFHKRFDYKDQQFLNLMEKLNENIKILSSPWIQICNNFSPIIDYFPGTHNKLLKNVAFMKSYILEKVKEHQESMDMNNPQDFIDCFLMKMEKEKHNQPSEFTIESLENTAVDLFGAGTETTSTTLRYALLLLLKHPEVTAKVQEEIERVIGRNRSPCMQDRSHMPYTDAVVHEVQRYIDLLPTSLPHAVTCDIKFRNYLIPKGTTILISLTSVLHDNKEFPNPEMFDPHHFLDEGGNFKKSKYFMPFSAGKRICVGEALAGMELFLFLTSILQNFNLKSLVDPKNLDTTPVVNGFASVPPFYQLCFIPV
T1 sequence (P33261 whole entry): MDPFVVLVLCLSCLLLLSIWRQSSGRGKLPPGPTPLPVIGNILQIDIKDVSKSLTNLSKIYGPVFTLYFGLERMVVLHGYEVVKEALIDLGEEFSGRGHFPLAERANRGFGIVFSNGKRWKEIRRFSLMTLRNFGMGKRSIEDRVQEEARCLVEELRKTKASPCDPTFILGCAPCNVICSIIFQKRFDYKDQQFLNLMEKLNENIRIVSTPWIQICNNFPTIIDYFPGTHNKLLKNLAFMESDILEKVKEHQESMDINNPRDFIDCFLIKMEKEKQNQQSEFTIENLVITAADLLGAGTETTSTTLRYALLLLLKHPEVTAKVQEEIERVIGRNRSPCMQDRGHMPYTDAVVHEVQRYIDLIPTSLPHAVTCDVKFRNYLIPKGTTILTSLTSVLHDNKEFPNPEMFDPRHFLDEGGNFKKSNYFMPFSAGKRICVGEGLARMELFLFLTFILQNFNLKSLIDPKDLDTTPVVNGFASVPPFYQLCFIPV
T3 sequence (P08684 whole entry): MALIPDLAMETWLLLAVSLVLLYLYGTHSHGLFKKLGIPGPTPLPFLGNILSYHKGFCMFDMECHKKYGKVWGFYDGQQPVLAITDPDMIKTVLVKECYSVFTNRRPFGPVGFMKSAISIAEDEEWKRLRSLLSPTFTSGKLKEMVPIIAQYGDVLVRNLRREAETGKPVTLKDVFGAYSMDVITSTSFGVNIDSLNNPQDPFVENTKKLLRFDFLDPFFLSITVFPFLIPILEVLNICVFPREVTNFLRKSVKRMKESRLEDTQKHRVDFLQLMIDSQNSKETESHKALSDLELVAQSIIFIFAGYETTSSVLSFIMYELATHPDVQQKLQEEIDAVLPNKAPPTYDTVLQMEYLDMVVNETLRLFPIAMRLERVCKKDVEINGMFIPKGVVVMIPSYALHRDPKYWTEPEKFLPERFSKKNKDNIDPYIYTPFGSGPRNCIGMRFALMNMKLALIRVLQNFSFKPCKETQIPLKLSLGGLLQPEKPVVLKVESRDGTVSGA

In the case of `COc1ccc2c(c1OCc1ccccc1)C[C@@H](C(=O)O)N(C(=O)C(c1ccccc1)c1ccccc1)C2` [EMA-401, reference compound], the negative logarithm of the IC50 (pIC50) was 4.75 in assay [1]; 5.14 in assay [2]; 5.04 in assay [3]; 4.89 in assay [4]; < 4.30 in assay [5].

For `COc1ccc2c(c1OCc1ccccc1)C[C@@H](C(=O)O)N(C(=O)[C@@H](O[C@H]1CC[C@@H](O)CC1)c1ccccc1)C2` [Compound 63], the negative logarithm of the IC50 (pIC50) in assay [1] is < 4.30; in assay [2], < 4.30; in assay [3], < 4.30; in assay [4] it was < 4.30; in assay [5] it was < 4.30; in assay [6] it was 7.99.

Turning to `COc1ccc2c(c1OCc1ccccc1)C[C@@H](C(=O)O)N(C(=O)[C@@H](OC1CCCC1)c1ccccc1)C2` [Compound 37], the pIC50 in assay [1] is < 4.30; in assay [2], 4.52; in assay [3], < 4.30; in assay [4] it was < 4.30; in assay [5] it was < 4.30; in assay [6], 8.39.

For `COc1ccc2c(c1OCc1ccccc1)C[C@@H](C(=O)O)N(C(=O)[C@@H](OC1CC(F)(F)C1)c1ccccc1)C2` [Compound 51], the negative logarithm of the IC50 (pIC50) was < 4.30 in assay [1]; 4.46 in assay [2]; < 4.30 in assay [3]; < 4.30 in assay [4]; < 4.30 in assay [5]; 8.49 in assay [6].

On to `O=C(O)[C@@H]1Cc2c(ccc(Cl)c2OCc2ccccc2)CN1C(=O)[C@@H](OC1CCCC1)c1ccccc1` [Compound 107], for which the pIC50 in assay [1] was < 4.30; in assay [2], 4.84; in assay [3], < 4.30; in assay [4], < 4.30; in assay [5] it was < 4.30; in assay [6], 7.88.

As to `COc1ccc2c(c1OCc1ccccc1)C[C@@H](C(=O)O)N(C(=O)[C@@H](OC1(C)CCCC1)c1ccccc1)C2` [Compound 57], the pIC50 in assay [6] was 8.24.
